The values that follow come from patent EP4467141A1, “PYRAZOLO-QUINOLINES AS SELECTIVE INHIBITORS OF GENOTOXIC STRESS-INDUCED IKK/NF- KB PATHWAYS FOR CANCER THERAPY” (Max-Delbrück-Centrum für Molekulare Medizin in der …, priority 2023, dated 2024).

What all share (experiment): Kinase panel study
What all share (type): biochemical
Holding throughout (conditions): read-out: Percentage of inhibition; for inhibition at 1 µM: 1000nM; for inhibition at 10 µM: 10000nM

For one assay, the target named is T1, PRKCH (PKC eta) (Homo sapiens, UniProt P24723).
T1 construct: purchased Thermo Fisher Scientific
T1 sequence (P24723 whole entry): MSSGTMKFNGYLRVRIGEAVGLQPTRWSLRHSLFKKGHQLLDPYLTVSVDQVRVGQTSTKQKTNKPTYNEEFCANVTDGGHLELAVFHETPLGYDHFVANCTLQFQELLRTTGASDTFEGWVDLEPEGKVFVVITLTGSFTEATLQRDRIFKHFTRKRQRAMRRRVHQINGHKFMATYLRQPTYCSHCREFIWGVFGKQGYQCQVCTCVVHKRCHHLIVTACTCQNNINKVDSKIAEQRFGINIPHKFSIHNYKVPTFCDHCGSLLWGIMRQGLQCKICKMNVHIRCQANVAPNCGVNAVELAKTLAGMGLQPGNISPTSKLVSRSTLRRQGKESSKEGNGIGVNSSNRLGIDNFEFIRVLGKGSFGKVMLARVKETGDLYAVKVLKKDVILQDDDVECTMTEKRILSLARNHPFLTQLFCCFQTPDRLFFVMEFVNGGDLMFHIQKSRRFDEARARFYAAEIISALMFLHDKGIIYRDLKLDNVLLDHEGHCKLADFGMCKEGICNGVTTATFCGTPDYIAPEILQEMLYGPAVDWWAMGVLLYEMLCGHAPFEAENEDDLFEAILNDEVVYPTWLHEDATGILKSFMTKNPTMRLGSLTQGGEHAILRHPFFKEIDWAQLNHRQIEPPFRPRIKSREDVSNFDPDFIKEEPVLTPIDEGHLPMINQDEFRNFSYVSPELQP
The procedure, abridged: (§1)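 A commercial kinase profiling service ran the assays according to its ZLyte or Adapta standard protocols. Compound was present at 10 µM or 1 µM, and kinase activity loss was expressed as percent inhibition.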

In another assay the target is T2, PAK6 (Homo sapiens, UniProt Q9NQU5).
T2 construct: purchased Thermo Fisher Scientific
T2 sequence (Q9NQU5 whole entry): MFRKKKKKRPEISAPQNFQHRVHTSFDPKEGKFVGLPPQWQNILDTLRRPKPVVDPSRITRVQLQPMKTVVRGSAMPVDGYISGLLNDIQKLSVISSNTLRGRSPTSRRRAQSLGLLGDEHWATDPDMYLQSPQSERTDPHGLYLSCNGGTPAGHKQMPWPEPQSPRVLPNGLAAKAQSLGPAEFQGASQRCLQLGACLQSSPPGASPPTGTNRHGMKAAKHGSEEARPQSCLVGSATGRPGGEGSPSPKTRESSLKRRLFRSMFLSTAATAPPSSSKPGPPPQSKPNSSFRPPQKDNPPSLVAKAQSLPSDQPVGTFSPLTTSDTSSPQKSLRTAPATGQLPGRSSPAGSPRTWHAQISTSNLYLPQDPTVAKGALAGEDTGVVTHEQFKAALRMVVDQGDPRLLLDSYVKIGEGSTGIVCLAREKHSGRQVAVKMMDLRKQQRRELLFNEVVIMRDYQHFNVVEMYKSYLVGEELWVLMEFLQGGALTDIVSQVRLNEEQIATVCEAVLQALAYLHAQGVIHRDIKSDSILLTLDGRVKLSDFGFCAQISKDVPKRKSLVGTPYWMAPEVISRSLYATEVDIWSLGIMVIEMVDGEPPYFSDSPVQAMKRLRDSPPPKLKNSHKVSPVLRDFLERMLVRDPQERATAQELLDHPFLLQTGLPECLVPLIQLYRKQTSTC
The procedure, abridged:
as §1

In a further assay the target is T3, EGFR (ErbB1) L861Q (Homo sapiens, UniProt P00533, L861Q).
T3 construct: purchased Thermo Fisher Scientific
The procedure, abridged:
as §1

The target in the next assay is T4, CSNK1D (CK1 delta) (Homo sapiens, UniProt P48730).
T4 construct: purchased Thermo Fisher Scientific
The procedure, abridged:
as §1

Another assay has as its target T5, CDK7/cyclin H/MNAT1 (Homo sapiens, UniProt P50613).
T5 construct: purchased Thermo Fisher Scientific
The procedure, abridged:
as §1

The target in a further assay is T6, MAPK13 (p38 delta) (Homo sapiens, UniProt O15264).
T6 construct: purchased Thermo Fisher Scientific
T6 sequence (O15264 1-365): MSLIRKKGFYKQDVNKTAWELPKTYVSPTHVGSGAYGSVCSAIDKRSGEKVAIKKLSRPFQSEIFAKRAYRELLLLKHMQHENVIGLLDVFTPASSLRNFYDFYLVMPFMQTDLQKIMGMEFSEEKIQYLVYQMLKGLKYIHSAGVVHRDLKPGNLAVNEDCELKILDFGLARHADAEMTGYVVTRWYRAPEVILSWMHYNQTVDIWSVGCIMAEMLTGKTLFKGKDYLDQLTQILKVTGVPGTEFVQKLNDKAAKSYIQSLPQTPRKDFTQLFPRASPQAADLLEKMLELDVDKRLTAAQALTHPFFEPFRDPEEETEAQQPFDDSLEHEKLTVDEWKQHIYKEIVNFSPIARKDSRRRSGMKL
The procedure, abridged: as §1

The next assay addresses T7, RPS6KA2 (RSK3) (Homo sapiens, UniProt Q15349).
T7 construct: purchased Thermo Fisher Scientific
The procedure, abridged:
as §1

The next assay concerns the target T8, RPS6KA6 (RSK4) (Homo sapiens, UniProt Q9UK32).
T8 construct: purchased Thermo Fisher Scientific
The procedure, abridged: as §1

Another assay concerns the target T9, MAP4K4 (HGK) (Homo sapiens, UniProt O95819).
T9 construct: purchased Thermo Fisher Scientific
The procedure, abridged:
as §1

The target of a further assay is T10, PRKCE (PKC epsilon) (Homo sapiens, UniProt Q02156).
T10 construct: purchased Thermo Fisher Scientific
T10 sequence (Q02156 1-737): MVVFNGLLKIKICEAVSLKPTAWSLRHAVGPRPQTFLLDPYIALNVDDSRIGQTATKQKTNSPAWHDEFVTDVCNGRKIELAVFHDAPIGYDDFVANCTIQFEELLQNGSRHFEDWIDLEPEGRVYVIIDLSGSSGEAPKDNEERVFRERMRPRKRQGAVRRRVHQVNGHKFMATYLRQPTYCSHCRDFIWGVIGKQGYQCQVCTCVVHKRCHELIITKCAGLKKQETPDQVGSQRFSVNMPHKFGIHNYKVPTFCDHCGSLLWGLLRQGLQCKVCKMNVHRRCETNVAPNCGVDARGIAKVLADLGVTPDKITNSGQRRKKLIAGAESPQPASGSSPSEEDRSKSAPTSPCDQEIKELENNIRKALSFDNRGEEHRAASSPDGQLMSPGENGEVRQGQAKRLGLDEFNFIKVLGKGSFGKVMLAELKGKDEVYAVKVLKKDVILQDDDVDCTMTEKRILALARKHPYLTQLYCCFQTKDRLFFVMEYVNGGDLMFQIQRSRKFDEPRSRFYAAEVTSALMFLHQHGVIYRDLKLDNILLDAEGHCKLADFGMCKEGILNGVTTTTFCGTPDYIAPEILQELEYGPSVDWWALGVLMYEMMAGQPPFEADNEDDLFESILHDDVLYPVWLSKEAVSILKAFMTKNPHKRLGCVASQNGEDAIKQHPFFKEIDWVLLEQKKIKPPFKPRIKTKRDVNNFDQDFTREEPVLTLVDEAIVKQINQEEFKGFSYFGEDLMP
The procedure, abridged: as §1

The target in a further assay is T11, MARK3 (Homo sapiens, UniProt P27448).
T11 construct: purchased Thermo Fisher Scientific
T11 sequence (P27448 whole entry): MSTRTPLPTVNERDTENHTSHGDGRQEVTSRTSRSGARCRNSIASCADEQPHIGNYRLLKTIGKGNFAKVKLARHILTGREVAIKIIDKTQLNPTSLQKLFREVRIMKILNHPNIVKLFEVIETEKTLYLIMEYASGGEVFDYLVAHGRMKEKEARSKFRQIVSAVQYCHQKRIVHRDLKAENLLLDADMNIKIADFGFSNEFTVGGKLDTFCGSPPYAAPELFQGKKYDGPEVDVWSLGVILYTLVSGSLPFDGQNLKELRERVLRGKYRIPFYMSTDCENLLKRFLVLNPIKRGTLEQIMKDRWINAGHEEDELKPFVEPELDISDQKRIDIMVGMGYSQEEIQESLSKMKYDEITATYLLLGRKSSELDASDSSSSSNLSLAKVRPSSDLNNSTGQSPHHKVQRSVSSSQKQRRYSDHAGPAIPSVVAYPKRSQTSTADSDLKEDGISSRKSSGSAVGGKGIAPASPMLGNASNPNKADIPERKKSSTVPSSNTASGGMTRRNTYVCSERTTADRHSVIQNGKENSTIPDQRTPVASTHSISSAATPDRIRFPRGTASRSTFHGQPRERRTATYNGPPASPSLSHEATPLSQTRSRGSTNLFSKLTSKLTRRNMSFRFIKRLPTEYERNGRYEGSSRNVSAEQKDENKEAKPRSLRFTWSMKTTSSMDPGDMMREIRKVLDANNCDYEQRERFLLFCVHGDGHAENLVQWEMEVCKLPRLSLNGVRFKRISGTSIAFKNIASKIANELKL
The procedure, abridged:
as §1

The next assay has as its target T12, GRK4 (Homo sapiens, UniProt P32298).
T12 construct: purchased Thermo Fisher Scientific
The procedure, abridged: as §1

T9 sequence (O95819 whole entry): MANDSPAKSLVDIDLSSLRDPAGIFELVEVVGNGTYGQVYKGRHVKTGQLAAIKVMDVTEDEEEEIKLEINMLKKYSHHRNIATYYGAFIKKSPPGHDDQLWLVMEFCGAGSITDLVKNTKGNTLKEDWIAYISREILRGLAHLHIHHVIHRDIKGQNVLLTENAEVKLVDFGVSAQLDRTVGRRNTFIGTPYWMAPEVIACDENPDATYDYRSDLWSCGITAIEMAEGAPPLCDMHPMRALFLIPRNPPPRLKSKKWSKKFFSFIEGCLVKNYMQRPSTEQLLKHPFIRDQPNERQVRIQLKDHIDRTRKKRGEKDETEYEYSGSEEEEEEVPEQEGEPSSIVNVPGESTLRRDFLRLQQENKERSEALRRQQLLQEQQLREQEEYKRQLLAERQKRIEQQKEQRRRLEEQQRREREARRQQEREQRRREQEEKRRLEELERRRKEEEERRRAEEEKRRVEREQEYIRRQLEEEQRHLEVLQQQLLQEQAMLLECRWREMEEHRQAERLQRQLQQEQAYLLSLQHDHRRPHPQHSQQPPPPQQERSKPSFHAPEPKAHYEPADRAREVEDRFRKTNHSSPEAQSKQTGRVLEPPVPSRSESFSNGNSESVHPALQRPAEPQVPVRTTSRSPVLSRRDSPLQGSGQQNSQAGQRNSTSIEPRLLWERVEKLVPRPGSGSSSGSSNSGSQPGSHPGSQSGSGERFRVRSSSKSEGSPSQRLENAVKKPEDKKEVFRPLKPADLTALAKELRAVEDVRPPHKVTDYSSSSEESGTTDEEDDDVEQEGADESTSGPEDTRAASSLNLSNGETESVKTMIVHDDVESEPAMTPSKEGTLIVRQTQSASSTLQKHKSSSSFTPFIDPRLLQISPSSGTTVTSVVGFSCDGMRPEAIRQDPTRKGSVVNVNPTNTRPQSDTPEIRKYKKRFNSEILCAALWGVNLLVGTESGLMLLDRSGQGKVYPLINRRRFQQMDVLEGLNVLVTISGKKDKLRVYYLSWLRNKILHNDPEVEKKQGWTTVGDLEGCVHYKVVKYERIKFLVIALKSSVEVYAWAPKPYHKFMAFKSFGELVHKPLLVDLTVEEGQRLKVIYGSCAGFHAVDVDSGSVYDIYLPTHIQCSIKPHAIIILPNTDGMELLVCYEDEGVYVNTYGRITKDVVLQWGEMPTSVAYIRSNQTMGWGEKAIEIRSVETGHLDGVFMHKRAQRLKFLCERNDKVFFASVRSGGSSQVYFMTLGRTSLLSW
T8 sequence (Q9UK32 whole entry): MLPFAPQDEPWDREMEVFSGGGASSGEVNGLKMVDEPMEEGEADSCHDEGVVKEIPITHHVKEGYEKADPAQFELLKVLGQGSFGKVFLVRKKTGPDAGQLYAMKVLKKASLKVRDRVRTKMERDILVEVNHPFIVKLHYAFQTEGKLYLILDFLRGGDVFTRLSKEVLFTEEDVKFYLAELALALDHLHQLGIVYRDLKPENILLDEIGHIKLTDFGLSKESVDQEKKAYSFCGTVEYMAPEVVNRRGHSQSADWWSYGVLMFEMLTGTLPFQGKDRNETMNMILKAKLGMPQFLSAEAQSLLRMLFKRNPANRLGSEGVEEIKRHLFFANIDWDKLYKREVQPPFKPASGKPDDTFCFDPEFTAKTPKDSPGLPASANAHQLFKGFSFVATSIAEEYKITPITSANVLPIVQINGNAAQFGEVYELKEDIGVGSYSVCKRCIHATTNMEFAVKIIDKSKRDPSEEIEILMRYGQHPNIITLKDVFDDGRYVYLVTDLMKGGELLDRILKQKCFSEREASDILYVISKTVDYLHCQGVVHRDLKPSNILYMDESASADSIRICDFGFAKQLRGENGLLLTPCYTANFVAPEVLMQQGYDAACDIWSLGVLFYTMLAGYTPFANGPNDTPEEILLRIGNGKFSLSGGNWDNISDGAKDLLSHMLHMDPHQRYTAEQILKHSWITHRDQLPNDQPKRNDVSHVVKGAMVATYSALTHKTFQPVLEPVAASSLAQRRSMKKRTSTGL
T7 sequence (Q15349 whole entry): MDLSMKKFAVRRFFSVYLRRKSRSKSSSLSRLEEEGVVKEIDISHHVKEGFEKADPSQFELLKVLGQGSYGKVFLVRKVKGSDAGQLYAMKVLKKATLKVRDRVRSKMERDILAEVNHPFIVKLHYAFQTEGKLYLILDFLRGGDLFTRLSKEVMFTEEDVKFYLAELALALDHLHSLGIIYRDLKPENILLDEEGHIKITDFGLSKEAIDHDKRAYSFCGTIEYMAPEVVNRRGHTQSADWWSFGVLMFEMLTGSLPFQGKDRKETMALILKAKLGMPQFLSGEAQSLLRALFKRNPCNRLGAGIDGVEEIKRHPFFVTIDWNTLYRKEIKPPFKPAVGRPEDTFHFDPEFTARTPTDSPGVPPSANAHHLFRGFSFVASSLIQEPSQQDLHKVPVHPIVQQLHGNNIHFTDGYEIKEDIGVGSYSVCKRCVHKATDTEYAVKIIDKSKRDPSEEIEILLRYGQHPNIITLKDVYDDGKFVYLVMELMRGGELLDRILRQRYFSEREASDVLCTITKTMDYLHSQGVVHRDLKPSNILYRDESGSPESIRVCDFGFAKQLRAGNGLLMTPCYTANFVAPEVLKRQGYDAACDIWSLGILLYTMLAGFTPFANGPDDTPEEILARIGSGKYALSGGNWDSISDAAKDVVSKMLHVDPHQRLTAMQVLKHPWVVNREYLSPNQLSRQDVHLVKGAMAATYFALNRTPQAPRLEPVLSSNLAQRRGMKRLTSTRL

One may read the inhibition as the relative decrease from the control value, in per cent. For the compound `COc1ccc2c(c1OC)c(=O)n1c3ccc(O)cc3c3ccnc2c31` [MW01, 5-Hydroxy-10,11-dimethoxy-9H-benzo[c]indolo[3,2,1-ij][1,5]naphthyridin-9-one], the inhibition at 1 µM at PRKCH (PKC eta) was 1%; at PAK6, 5%; at EGFR (ErbB1) L861Q, -9%; at CSNK1D (CK1 delta), 13%; at CDK7/cyclin H/MNAT1, 3%; at MAPK13 (p38 delta), 13%. Besides, the inhibition at 1 µM stood at 6% on RPS6KA2 (RSK3); 5% on RPS6KA6 (RSK4); 64% at MAP4K4 (HGK); 9% on PRKCE (PKC epsilon); 0% at MARK3; 8% at GRK4. The inhibition at 10 µM on PRKCH (PKC eta) was 7%; on PAK6 it was -10%; on EGFR (ErbB1) L861Q, 8%; at CSNK1D (CK1 delta) it was 39%; on CDK7/cyclin H/MNAT1, 4%; on MAPK13 (p38 delta), 11%. In addition, the inhibition at 10 µM came to 11% at RPS6KA2 (RSK3); 17% on RPS6KA6 (RSK4); 80% on MAP4K4 (HGK); 8% on PRKCE (PKC epsilon); 7% at MARK3; 12% at GRK4.
As for `COc1ccc2cc3c(N)nn(C(=O)c4cccc(N(C)C)c4)c3nc2c1` [MW05, (3-Amino-7-methoxypyrazolo[3,4-b]quinolin-1-yl)-[3-(dimethylamino)phenyl]methanone], the inhibition at 1 µM at PRKCH (PKC eta) is -3%; on PAK6, 11%; at EGFR (ErbB1) L861Q it was -6%; at CSNK1D (CK1 delta), -1%; at CDK7/cyclin H/MNAT1, 2%; at MAPK13 (p38 delta), 8%. Moreover, the inhibition at 1 µM was 5% at RPS6KA2 (RSK3); 2% at RPS6KA6 (RSK4); 9% on MAP4K4 (HGK); 6% on PRKCE (PKC epsilon); 3% on MARK3; -1% at GRK4. Also, the inhibition at 10 µM was -9% at PRKCH (PKC eta); 3% on PAK6; -18% at EGFR (ErbB1) L861Q; -1% at CSNK1D (CK1 delta); 29% on CDK7/cyclin H/MNAT1; 9% at MAPK13 (p38 delta). The inhibition at 10 µM on RPS6KA2 (RSK3) is 6%; on RPS6KA6 (RSK4), 4%; on MAP4K4 (HGK), 11%; on PRKCE (PKC epsilon), -12%; at MARK3, -5%; at GRK4 it was 2%.
